What follows are compounds tested on pFGFR4 in Huh7 cells (assay: FGFR4 signaling, pFGFR4 (Huh); MSD (Method B)). Settings: Homo sapiens, Huh-7, read-out: Signaling EC50 (nM) pFGFR4 (Huh).
Assay type: cell-based

Row | SMILES | EC50 [nM]
1 | C=CC(=O)NC1CCCCC1Nc1ncc2c(n1)N(C)C(=O)N(c1c(Cl)c(OC)cc(OC)c1Cl)C2 (racemic) [Compound I-19] | 101 to 500
2 | C=CC(=O)Nc1ccccc1Nc1ncc2c(n1)N(C1CCN(CC)CC1)C(=O)N(c1cc(OC)cc(OC)c1)C2 [Compound I-80] | > 1000
3 | C=CC(=O)Nc1ccccc1Nc1ncc2c(n1)N(C1CCNCC1)C(=O)N(c1cc(OC)cc(OC)c1)C2 [Compound I-81] | > 1000
4 | C=CC(=O)N[C@H]1CCCC[C@H]1Nc1ncc2c(n1)N(C)C(=O)N(c1c(Cl)c(OC)cc(OC)c1Cl)C2 [Compound I-95] | 101 to 500
5 | C=CC(=O)N[C@H]1CCCC[C@H]1Nc1ncc2c(n1)N(Cc1cscn1)C(=O)N(c1c(Cl)c(OC)cc(OC)c1Cl)C2 [Compound I-114] | 101 to 500
6 | C=CC(=O)Nc1cc(N2CCN(C(=O)CCCC(=O)NCCCOCCOCCOCCCNC(=O)CCCC[C@@H]3SC[C@@H]4NC(=O)N[C@@H]43)CC2)ccc1Nc1ncc2c(n1)N(C)C(=O)N(c1c(Cl)c(OC)cc(OC)c1Cl)C2 [Compound I-127] | 101 to 500
7 | C=CC(=O)N[C@H]1CCCC[C@H]1Nc1ncc2cc(-c3c(Cl)c(OC)cc(OC)c3Cl)c(=O)n(C)c2n1 [Compound I-223] | < 100

Same assay, conditions: Homo sapiens, Huh-7; Huh7 cells; read-out: Signaling EC50 (nM) pFGFR4 (Huh)

Row | SMILES | EC50 [nM]
8 | C=CC(=O)NC1CCCCC1Nc1ncc2c(n1)N(Cc1cccc(NC(=O)CC)c1)C(=O)N(c1c(Cl)c(OC)cc(OC)c1Cl)C2 (racemic) [Compound I-8] | 101 to 500
9 | C=CC(=O)NC1CCCCC1Nc1ncc2c(n1)N(CC#N)C(=O)N(c1c(Cl)c(OC)cc(OC)c1Cl)C2 (racemic) [Compound I-47] | 501 to 999
10 | C=CC(=O)NC1CCCCC1Nc1ncc2c(n1)N(CCOC)C(=O)N(c1c(Cl)c(OC)cc(OC)c1Cl)C2 (racemic) [Compound I-61] | 101 to 500
11 | C=CC(=O)NC1CCCCC1Nc1ncc2c(n1)N(Cc1ccccc1)C(=O)N(c1c(Cl)c(OC)cc(OC)c1Cl)C2 (racemic) [Compound I-63] | < 100
12 | C=CC(=O)NC1CCCCC1Nc1ncc2c(n1)N(C1CC1)C(=O)N(c1c(Cl)c(OC)cc(OC)c1Cl)C2 (racemic) [Compound I-68] | 501 to 999
13 | C=CC(=O)Nc1cc(C(F)(F)F)ccc1Nc1ncc2c(n1)N(Cc1ccccc1)C(=O)N(c1c(Cl)c(OC)cc(OC)c1Cl)C2 [Compound I-6] | 101 to 500
14 | C=CC(=O)NC1COCC1Nc1ncc2c(n1)N(C)C(=O)N(c1c(F)c(OC)cc(OC)c1F)C2 (stereo not shown) [Compound I-198] | < 100
15 | C=CC(=O)NC1CS(=O)(=O)CC1Nc1ncc2c(n1)N(C)C(=O)N(c1c(Cl)c(OC)cc(OC)c1Cl)C2 (stereo not shown) [Compound I-200] | 101 to 500
16 | C=CC(=O)NC1CN(c2ccncn2)CC1Nc1ncc2c(n1)N(C)C(=O)N(c1c(Cl)c(OC)cc(OC)c1Cl)C2 (stereo not shown) [Compound I-201] | 101 to 500
17 | C=CC(=O)NC1CN(c2ccn(C)n2)CC1Nc1ncc2c(n1)N(C)C(=O)N(c1c(Cl)c(OC)cc(OC)c1Cl)C2 (stereo not shown) [Compound I-204] | < 100
18 | C=CC(=O)NC1COCC1Nc1ncc2c(n1)N(C)C(=O)N(c1c(Cl)c(OCC)cc(OCC)c1Cl)C2 (stereo not shown) [Compound I-205] | 101 to 500
19 | C=CC(=O)NC1COCC1Nc1ncc2c(n1)N(C)C(=O)N(c1c(F)c(OC)cc(OC)c1Cl)C2 (stereo not shown) [Compound I-206] | < 100
20 | C=CC(=O)NC1COCC1Nc1ncc2c(n1)N(C)C(=O)N(c1cc(OC)c(OC)c(OC)c1)C2 (stereo not shown) [Compound I-207] | > 1000
21 | C=CC(=O)NC1COCC1Nc1ncc2c(n1)N(C)C(=O)N(c1c(Cl)c(OC)c(OC)c(OC)c1Cl)C2 (stereo not shown) [Compound I-208] | > 1000
22 | C=CC(=O)NC1COCC1Nc1ncc2c(n1)N(C)C(=O)N(c1ccc(OC)cc1)C2 (stereo not shown) [Compound I-209] | > 1000
23 | C=CC(=O)NC1COCC1Nc1ncc2c(n1)N(Cc1cscn1)C(=O)N(c1c(Cl)c(OC)cc(OC)c1Cl)C2 (stereo not shown) [Compound I-210] | < 100
24 | C=CC(=O)NC1COCC1Nc1ncc2c(n1)N(CC1CC1)C(=O)N(c1c(Cl)c(OC)cc(OC)c1Cl)C2 (stereo not shown) [Compound I-212] | < 100

Row | SMILES | EC50 [nM]
25 | C=CC(=O)NC1COCC1Nc1ncc2c(n1)N(Cc1cnn(C)c1)C(=O)N(c1c(Cl)c(OC)cc(OC)c1Cl)C2 (stereo not shown) [Compound I-213] | < 100
26 | C=CC(=O)NC1COCC1Nc1ncc2c(n1)N(Cc1cn[nH]c1)C(=O)N(c1c(Cl)c(OC)cc(OC)c1Cl)C2 (stereo not shown) [Compound I-214] | 101 to 500
27 | C=CC(=O)NC1COCC1Nc1ncc2c(n1)N(Cc1ccn(C)n1)C(=O)N(c1c(Cl)c(OC)cc(OC)c1Cl)C2 (stereo not shown) [Compound I-215] | < 100
28 | C=CC(=O)NC1COCC1Nc1ncc2c(n1)N(Cc1cc[nH]n1)C(=O)N(c1c(Cl)c(OC)cc(OC)c1Cl)C2 (stereo not shown) [Compound I-216] | 101 to 500
29 | C=CC(=O)NC1COCC1Nc1ncc2c(n1)N(CC)C(=O)N(c1c(Cl)c(OC)cc(OC)c1Cl)C2 (stereo not shown) [Compound I-217] | < 100
30 | C=CC(=O)N(C)C1COCC1Nc1ncc2c(n1)N(C)C(=O)N(c1c(Cl)c(OC)cc(OC)c1Cl)C2 (stereo not shown) [Compound I-218] | > 1000
31 | C=CC(=O)N[C@H]1CCCC[C@H]1Nc1ncc2c(n1)N(C)C(=O)N(c1c(Cl)c(OCC)cc(OCC)c1Cl)C2 [Compound I-219] | 501 to 999
32 | C=CC(=O)N[C@H]1CCCC[C@H]1Nc1ncc2c(n1)N(C)C(=O)N(c1cc(OC)c(OC)c(OC)c1)C2 [Compound I-220] | > 1000
33 | C=CC(=O)N[C@H]1CCCC[C@H]1Nc1ncc2c(n1)N(C)C(=O)N(c1c(Cl)c(OC)c(OC)c(OC)c1Cl)C2 [Compound I-221] | > 1000
34 | C=CC(=O)N[C@H]1CCCC[C@H]1Nc1ncc2c(n1)N(C)C(=O)N(c1c(F)c(OC)cc(OC)c1Br)C2 [Compound I-228] | 101 to 500
35 | C=CC(=O)Nc1cc(OC)ccc1Nc1ncc2cc(-c3c(Cl)c(OC)cc(OC)c3Cl)c(=O)n(C)c2n1 [Compound I-242] | < 100
36 | C=CC(=O)Nc1cc(C)ccc1Nc1ncc2cc(-c3c(Cl)c(OC)cc(OC)c3Cl)c(=O)n(C)c2n1 [Compound I-243] | < 100
37 | C=CC(=O)Nc1ccccc1Nc1ncc2cc(-c3c(Cl)c(OC)cc(OC)c3Cl)c(=O)n(C)c2n1 [Compound I-244] | < 100
38 | C=CC(=O)Nc1cc(F)ccc1Nc1ncc2cc(-c3c(Cl)c(OC)cc(OC)c3Cl)c(=O)n(C)c2n1 [Compound I-245] | < 100
39 | C=CC(=O)NC1COCC1Nc1ncc2c(n1)N(C)C(=O)N(c1cc(C(=O)Nc3cccc(C(C)(C)C#N)c3)ccc1Cl)C2 (stereo not shown) [Compound I-246] | 101 to 500
40 | C=CC(=O)NC1COCC1Nc1ncc2c(n1)N(C)C(=O)N(c1cc(C(=O)Nc3cccc(C(C)(C)C)c3)ccc1Cl)C2 (stereo not shown) [Compound I-247] | < 100

These compounds were tested on pFGFR4 in MDA-MB-453 cells (assay: FGFR4 signaling, pFGFR4 (MDA); Western blot (Method A), MSD (Method B), ELISA (Method C)). Settings: Homo sapiens, MDA-MB-453, MDA-MB-453 cells; Method B (MSD) for signaling EC50 determination.
Assay type: cell-based
Description: The MDA-MB-453 protein concentrations were determined by a BCA Assay (Pierce, Rockford, Ill.). A sample of 50-100 μg of each lysate was separated by a 4-12% gradient (SDS-PAGE (Invitrogen)), transferred to a nitrocellulose membrane (Biorad, Hercules, Calif.), and probed with specific antibodies. Phospho-protein signals were quantitated using Odyssey Infrared Imaging (Li-Cor Biosciences).
To assess phospho-FGFR signaling, the blots were probed with anti-Phospho-FGFR (Y653/Y654) and total anti-FGFR antibodies. The phospho-FGFR signal was normalized to total FGFR expression for each sample.

Row | SMILES | EC50 [nM]
41 | C=CC(=O)NC1CCCCC1Nc1ncc2c(n1)N(C1CC1)C(=O)N(c1c(Cl)c(OC)cc(OC)c1Cl)C2 (racemic) [Compound I-68] | 101 to 500
42 | CCC(=O)Nc1ccccc1Nc1ncc2c(n1)N(C)C(=O)N(c1c(Cl)c(OC)cc(OC)c1Cl)C2 [Compound I-235] | 501 to 999
43 | CCC(=O)Nc1ccccc1Nc1ncc2c(n1)N(Cc1ccccc1)C(=O)N(c1c(Cl)c(OC)cc(OC)c1Cl)C2 [Compound I-236] | 101 to 500
44 | COc1cc(OC)cc(N2Cc3cnc(Nc4ccccc4)nc3N(C)C2=O)c1 [Compound I-237] | 101 to 500

Same assay, conditions: Homo sapiens; MDA-MB-453 cells; Method A (Western blot) for signaling EC50 determination

Row | SMILES | EC50 [nM]
45 | C=CC(=O)NCc1ccccc1Nc1ncc2c(n1)N(Cc1cccc(NC(=O)CC)c1)C(=O)N(c1c(Cl)c(OC)cc(OC)c1Cl)C2 [Compound I-179] | < 100
46 | C=CC(=O)Nc1ccc(Nc2ncc3c(n2)N(Cc2cccc(NC(=O)CC)c2)C(=O)N(c2c(Cl)c(OC)cc(OC)c2Cl)C3)cc1 [Compound I-233] | < 100

Same assay, conditions: Homo sapiens; MDA-MB-453 cells; Method B (MSD) for signaling EC50 determination

Row | SMILES | EC50 [nM]
47 | C=CC(=O)NC1CCCCC1Nc1ncc2c(n1)N(CC#N)C(=O)N(c1c(Cl)c(OC)cc(OC)c1Cl)C2 (racemic) [Compound I-47] | 101 to 500
48 | C=CC(=O)NC1CCCCC1Nc1ncc2c(n1)N(CCOC)C(=O)N(c1c(Cl)c(OC)cc(OC)c1Cl)C2 (racemic) [Compound I-61] | 101 to 500
49 | C=CC(=O)NC1CCCCC1Nc1ncc2c(n1)N(Cc1ccccc1)C(=O)N(c1c(Cl)c(OC)cc(OC)c1Cl)C2 (racemic) [Compound I-63] | 101 to 500
50 | C=CC(=O)Nc1ccccc1Nc1ncc2c(n1)N(Cc1ccnc(N)c1)C(=O)N(c1c(Cl)c(OC)cc(OC)c1Cl)C2 [Compound I-135] | < 100
51 | C=CC(=O)Nc1ccccc1Nc1ncc2c(n1)N(Cc1ccn(C)n1)C(=O)N(c1c(Cl)c(OC)cc(OC)c1Cl)C2 [Compound I-136] | < 100
52 | C=CC(=O)Nc1cc(-c2cnn(C)c2)ccc1Nc1ncc2c(n1)N(C)C(=O)N(c1c(Cl)c(OC)cc(OC)c1Cl)C2 [Compound I-141] | < 100
53 | C=C(C)C(=O)Nc1ccccc1Nc1ncc2c(n1)N(C)C(=O)N(c1c(Cl)c(OC)cc(OC)c1Cl)C2 [Compound I-142] | 101 to 500
54 | C=CC(=O)Nc1ccccc1Nc1ncc2c(n1)N(Cc1ccc(F)c(N)c1)C(=O)N(c1c(Cl)c(OC)cc(OC)c1Cl)C2 [Compound I-144] | < 100
55 | C=CC(=O)Nc1cc(-c2nnn(C)n2)ccc1Nc1ncc2c(n1)N(C)C(=O)N(c1c(Cl)c(OC)cc(OC)c1Cl)C2 [Compound I-145] | < 100
56 | C=CC(=O)N[C@H]1CCCC[C@H]1Nc1ncc2c(n1)N(Cc1ccn(C)n1)C(=O)N(c1c(Cl)c(OC)cc(OC)c1Cl)C2 [Compound I-147] | < 100
57 | C=CC(=O)N[C@H]1CCCC[C@H]1Nc1ncc2c(n1)N(Cc1cnn(C)c1)C(=O)N(c1c(Cl)c(OC)cc(OC)c1Cl)C2 [Compound I-148] | < 100
58 | C=CC(=O)Nc1cc(C(=O)NC2CCN(C)CC2)ccc1Nc1ncc2c(n1)N(C)C(=O)N(c1c(Cl)c(OC)cc(OC)c1Cl)C2 [Compound I-150] | < 100
59 | C=CC(=O)N[C@H]1CCCC[C@H]1Nc1ncc2c(n1)N(Cc1cn[nH]c1)C(=O)N(c1c(Cl)c(OC)cc(OC)c1Cl)C2 [Compound I-152] | < 100
60 | C=CC(=O)NCc1ccccc1Nc1ncc2c(n1)N(C)C(=O)N(c1c(Cl)c(OC)cc(OC)c1Cl)C2 [Compound I-181] | < 100

Same assay, conditions: Homo sapiens; MDA-MB-453 cells; Method C (ELISA) for signaling EC50 determination

Row | SMILES | EC50 [nM]
61 | C=CC(=O)Nc1ccccc1CNc1ncc2c(n1)N(Cc1cccc(NC(=O)CC)c1)C(=O)N(c1c(Cl)c(OC)cc(OC)c1Cl)C2 [Compound I-180] | < 100

From patent publication US10774052B2, “Heteroaryl compounds and uses thereof” (Celgene CAR LLC, priority 2013, dated 2020)
